Measurements from paper PMC11525561, “Gliflozins, sucrose and flavonoids are allosteric activators of lecithin-cholesterol acyltransferase” (Scientific Reports, 2024).
Read-outs that look alike come from different tables or passages of the source.

Assays:
[1] = system: LCAT; set-up: method as in PMID 30479275; conditions: MUP assay; cited from earlier work
[2] = cited from earlier work
[3] = biological target: T1, LCAT (Homo sapiens, UniProt P04180); experiment: DHE esterification acyltransferase assay with synthetic HDL (sHDL); format: biochemical; set-up: 6x histidine-tag (C); made in house; host or cells: 293T cells (ATCC CRL-3216); conditions: for acyltransferase Emax / Emax: normalized against LCAT + DMSO; for acyltransferase efficiency: kcat divided by Km
T1 sequence (P04180 25-440): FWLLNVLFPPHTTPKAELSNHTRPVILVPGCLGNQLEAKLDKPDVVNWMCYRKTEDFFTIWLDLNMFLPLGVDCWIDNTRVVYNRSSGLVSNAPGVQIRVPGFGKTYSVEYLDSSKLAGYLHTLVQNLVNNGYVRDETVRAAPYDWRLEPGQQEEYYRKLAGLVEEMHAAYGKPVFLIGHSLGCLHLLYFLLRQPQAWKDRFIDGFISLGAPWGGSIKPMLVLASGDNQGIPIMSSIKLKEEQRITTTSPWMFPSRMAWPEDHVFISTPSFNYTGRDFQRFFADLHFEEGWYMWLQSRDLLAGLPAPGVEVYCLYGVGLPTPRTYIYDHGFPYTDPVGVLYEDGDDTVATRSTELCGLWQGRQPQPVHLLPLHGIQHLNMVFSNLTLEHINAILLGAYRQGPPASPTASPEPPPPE
Method: The acyltransferase activity of LCAT was measured by using the fluorescent sterol DHE as a substrate. DHE is integrated in the structure of discoidal synthetic HDL (sHDL) made of peptides (22A) and phospholipids (DMPC). As a consequence of the acyltransferase activity of LCAT, DHE is esterified and stored in the inner core of sHDL as DHE-ester. The esterification is responsible for a shift in the emission wavelength of DHE from 372 nm to 425 nm, allowing the exclusive detection of DHE-ester and monitoring of the reaction.
DHE-sHDL was prepared via thermal cycling. In a glass vial, DHE and DMPC dissolved in chloroform were mixed with a molar ratio of 1:9. The organic solvent was dried with Rotavapor R-200 (BUCHI, Switzerland) at room temperature. The resulting dried thin lipid layer was hydrated with assay buffer (PBS 20 mM + EDTA 1 mM) and vortexed until complete dissolution. The solution was homogenized in a water bath sonicator at room temperature until transparency. 22A peptides dissolved in assay buffer were added to the vial (lipid to protein 2:1 w/w). The solution was incubated via three heating-cooling cycles (50 °C x 3 min; 4 °C x 3 min). […] The acyltransferase activity assay was performed in 384 well low volume black microplates with a final volume of 25 µL. PAM (0.1 mg/mL in DMSO) or DMSO were incubated with LCAT (5 µg/mL in assay buffer + 60 µM albumin (Merck)) 1:100 v/v at 37 °C gently shaken. After 30 min incubation, 10 µL of each reaction (LCAT + DMSO or LCAT + PAM) was added to the plate. To start the reaction, 10 µL of DHE-sHDL solution were added in the wells. The plate was incubated for 1 h at 37 °C gently shaken. Reactions were stopped by the addition of 5 µL of stop solution (assay buffer + 5 units/mL cholesterol oxidase COx + 7% Triton X-100). Plates went through a second round of incubation at 37 °C gently shaken for 1 h to extinguish the residual fluorescence of unesterified DHE. […] DHE-ester fluorescence was detected at an excitation wavelength of 325 nm and an emission wavelength of 425 nm using Varioskan LUX. Reactions without LCAT were used for background subtraction, while reactions without LCAT and stop solution without COx were used to generate a standard curve for DHE (λex 325 nm, λem 372 nm). Reactions were performed in triplicates with three independent experiments. Due to the light sensitivity of DHE, samples were protected from light during the entire preparation and assay. Data was processed via background subtraction, divided by the slope of the standard curve to obtain the amount of DHE-esters in every well and then divided further by the reaction time to determine the rate. The acyltransferase activity (DHE-ester formed) was plotted as a function of the DHE concentration. Data were fitted to the Michaelis-Menten kinetic equation by non-linear regression. Apparent Vmax and Km were calculated using OriginPro 2021b software, while acyltransferase efficiency of each PAM was calculated by dividing kcat by Km. […] The acyltransferase activities of our PAMs were compared to the reference compound A (Supplementary Fig. 2).
PAMs were diluted in DMSO reaching a final concentration of 0.001, 0.01, 0.1, 1 and 10 µM in the wells. Reactions were conducted exactly as above, using the same LCAT concentration and the same volumes. The experiment was performed in triplicate with three independent experiments. Fluorescence signals were processed via background subtraction (DHE-sHDL + buffer + stop solution), divided by the slope of the standard curve to obtain the amount of DHE-esters in every well and then divided further by the reaction time to determine the rate. Data were normalized against no PAM control (LCAT + DMSO). The acyltransferase activity (DHE-ester formed) was plotted as a function of the PAM concentration.

[4] = biological target: T1, LCAT; experiment: MUP based phospholipase assay; format: biochemical; set-up: 6x histidine-tag (C); made in house; host or cells: 293T cells (ATCC CRL-3216); conditions: for phospholipase efficiency: kcat divided by Km; for increase of phospholipase Vmax / increase of phospholipase efficiency: versus LCAT without compounds
Method: The phospholipase activity of LCAT was evaluated by using MUP as a substrate. The reaction was monitored with the increased fluorescence signal due to the formation of the reaction product MU. The assay was performed at room temperature in reaction buffer (0.1 M sodium phosphate buffer, pH 7.4). 55 µL of LCAT in reaction buffer (0.01 mg/mL) were incubated at 37 °C gently shaken with 0.41 µL of PAM (2 mg/mL in DMSO) or DMSO. After 1 h incubation, 2 µL of each reaction (LCAT + DMSO, LCAT + PAM, reaction buffer + PAM) was added to a black 384 well microplate, low volume (Corning). A MUP stock solution 1 mg/mL in DMSO + 3% Triton X-100 was diluted in a reaction buffer to 0, 10, 40, 60 and 120 µM. 18 µL of each dilution was added to the plate to start the reaction. The MUP stock solution was diluted immediately before use due to the self-hydrolysis of MUP to MU in aqueous buffers. The phospholipase activity of LCAT was monitored by fluorescence signal using Varioskan LUX (Thermo Scientific) plate reader at an excitation wavelength of 340 nm and an emission wavelength of 460 nm every 10 min for 60 min. Background signal due to MUP self-hydrolysis was subtracted from each result. Reactions were performed in triplicates with three independent experiments. Reaction rates were obtained by dividing the data by the assay time. To calculate the amount of MU produced in each reaction, a standard curve was generated from a MU stock solution 100 mM in DMSO and diluted further in reaction buffer. The phospholipase activity (MU mM) was plotted as a function of the MUP concentration. Data were fitted to the Michaelis-Menten kinetic equation by non-linear regression. Apparent Vmax and Km were calculated with OriginPro 2021b (MA, USA) software (version 9.8.5.212), while phospholipase efficiency of each PAM was calculated by dividing kcat by Km. The absence of fluorescence interference coming from PAMs was checked at an excitation wavelength of 340 nm before starting the assay (Supplementary Fig. 3). The phospholipase activities of our PAMs were compared to a positive control compound A (Supplementary Fig. 2)[17].

[5] = biological target: T1, LCAT; set-up: method as in PMID 4214409; conditions: blood of diabetes patients before and after insulin treatment; cited from earlier work
[6] = set-up: method as in PMID 9827549, PMID 19110406; conditions: cited from earlier work
[7] = DHE 50 µM, PAM concentration varied
[8] = DHE 50 µM, PAM concentration varied, mean ± SEM of triplicate, read-out: acyltransferase EC50
[9] = PAM 3 µM, DHE concentration varied, mean ± SEM
[10] = PAM 3 µM, versus LCAT without compounds
[11] = MUP concentration varied, mean ± SEM

Row | Structure (SMILES) | increase of LCAT acyltransferase activity [3, 7] | EC50 [3, 8] [nM] | acyltransferase Vmax [3, 9] [µM h^− 1] | improvement of acyltransferase efficiency [3, 10] | acyltransferase efficiency ([3]; PAM 3 µM) [µM⁻¹ h⁻¹] | phospholipase Vmax [4, 11] [µM h^− 1] | phospholipase efficiency [4] [µM⁻¹ h⁻¹] | Emax ([3]; DHE 50 µM) [%] | also measured
1 | N#Cc1cnc(N2CCC(c3n[nH]c4c3C(O)(C(F)(F)F)CC(=O)N4)CC2)cc1C(F)(F)F (stereo not shown) [1b] | – | – | – | – | – | – | – | – | phospholipase activity compared to LCAT [1]: 230%
2 | Cc1ccc([C@@H]2O[C@H](CO)[C@@H](O)[C@H](O)[C@H]2O)cc1Cc1ccc(-c2ccc(F)cc2)s1 [canagliflozin] | 150% | 80 ± 20 | 14.78 ± 0.34 | roughly 100% | 44.46 ± 2.43 | 15.70 ± 0.66 | 34.63 ± 0.97 | – | bound to proteins in plasma [2]: 99%; acyltransferase Emax ([3]; DHE 50 µM): 254.34±23.72%; Km [3, 9]: 8.37 ± 0.57 µM; increase of acyltransferase Vmax [3, 10]: 70%; Km [4, 11]: 22.7 ± 0.95 µM; increase of phospholipase Vmax [4]: 130%; increase of phospholipase efficiency [4]: 340%
3 | CCOc1ccc(Cc2cc([C@@H]3O[C@H](CO)[C@@H](O)[C@H](O)[C@H]3O)ccc2Cl)cc1 [dapagliflozin] | roughly 100% | 80 ± 40 | 12.13 ± 0.46 | – | 31.54 ± 2.93 | 11.68 ± 1.15 | 12.82 ± 2.80 | 196 ± 13.4 | bound to proteins in plasma [2]: 91%; increase of phospholipase Vmax [4]: 70%
4 | OC[C@H]1OC(O)[C@H](O)[C@@H](O)[C@@H]1O (stereo partly shown) [glucose] | – | – | – | – | – | – | – | – | activation of LCAT [5]: cannot activate LCAT
5 | O=c1cc(-c2ccc(O)c(O)c2)oc2cc(O)cc(O)c12 [luteolin] | roughly 100% | 100 ± 10 | 11.71 ± 0.43 | roughly 100% | 36.95 ± 2.13 | 10.91 ± 1.50 | 17.11 ± 4.72 | 191 ± 16.1 | –
6 | COC(=O)Nc1nc2ccc(C(=O)c3ccccc3)cc2[nH]1 [mebendazole] | no effect | – | 6.58 ± 0.26 | – | 18.92 ± 2.45 | 7.95 ± 1.90 | 6.28 ± 1.06 | – | effect on acyltransferase activity at 21.6 µM DHE ([3]; 21.6 µM DHE, PAM 3 µM): inhibited activity slightly; acyltransferase EC50 ([3]; DHE 50 µM, PAM concentration varied, mean ± SEM of triplicate): no effect; acyltransferase Emax ([3]; DHE 50 µM): no effect
7 | OC[C@H]1O[C@@](CO)(O[C@H]2O[C@H](CO)[C@@H](O)[C@H](O)[C@H]2O)[C@@H](O)[C@@H]1O [sucrose] | roughly 100% | – | 11.18 ± 0.80 | roughly 100% | 38.88 ± 9.05 | 8.79 ± 0.81 | 22.43 ± 4.38 | 176 ± 12.5 | oral bioavailability [6]: poor; EC50 [3]: 120 ± 60 nM; increase of phospholipase efficiency [4]: 180%
8 | O=C1c2c(O)cc(O)cc2OC(c2ccc(O)c(O)c2)C1O (stereo not shown) [taxifolin] | roughly 100% | 120 ± 40 | 13.55 ± 0.67 | – | 22.69 ± 1.94 | 10.71 ± 0.49 | 19.60 ± 0.01 | 211 ± 21.4 | –
